Laboratory results from the supplement of paper PMC10307832.

Assays:
Experiment in all cases: relative viability (nuclei count vs DMSO), 5 days (fraction); higher = more cells survive
[1] = compound: COc1nc(N)nc2c1ncn2[C@@H]1O[C@H](CO)[C@@H](O)[C@@H]1O [Nelarabine] + CS(=O)(=O)CCNCc1ccc(-c2ccc3ncnc(Nc4ccc(OCc5cccc(F)c5)c(Cl)c4)c3c2)o1 [Lapatinib] (partner 2 µM)
Summary of the method: (§1)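 Five library-drug doses in √10 steps were combined with a fixed anchor-drug dose, or a single drug was given alone, by pin tool to lung cancer cell lines in 1536-well plates the day after seeding. Nuclei were stained and counted after 5 days. Relative viability is the nuclei count in treated wells over that in vehicle wells, taken as the median of duplicate plates.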

[2] = compound: C=CCn1c(=O)c2cnc(Nc3ccc(N4CCN(C)CC4)cc3)nc2n1-c1cccc(C(C)(C)O)n1 [Adavosertib] + CC(C)C[C@H](NC(=O)[C@H](Cc1ccccc1)NC(=O)c1cnccn1)B(O)O [Bortezomib] (partner 0.002 µM)
Summary of the method: as §1

[3] = compound: COc1nc(N)nc2c1ncn2[C@@H]1O[C@H](CO)[C@@H](O)[C@@H]1O [Nelarabine] + Cc1nc(NC(=O)N2CCC[C@H]2C(N)=O)sc1-c1ccnc(C(C)(C)C(F)(F)F)c1 [Alpelisib] (partner 2 µM)
Summary of the method: as §1

[4] = compound: COc1nc(N)nc2c1ncn2[C@@H]1O[C@H](CO)[C@@H](O)[C@@H]1O [Nelarabine] + CC(C)C[C@H](NC(=O)[C@H](Cc1ccccc1)NC(=O)c1cnccn1)B(O)O [Bortezomib] (partner 0.002 µM)
Summary of the method: as §1

Q: For EMC-BAC-2, which relative viability ([1]; first compound 0.01 µM) is on record?
A: The relative viability was 1.05.

Q: What about the relative viability ([1]; first compound 0.03162 µM) of the same cell line?
A: The relative viability was 0.909.

Q: And the relative viability ([1]; first compound 0.1 µM)?
A: The relative viability was 0.883.

Q: And the relative viability ([1]; first compound 0.3162 µM)?
A: Its relative viability is 0.962.

Q: What about the relative viability ([1]; first compound 1 µM) of the same cell line?
A: Its relative viability is 0.885.

Q: What about the relative viability ([2]; first compound 0.01 µM) of the same cell line?
A: The relative viability was 0.987.

Q: What about the relative viability ([2]; first compound 0.03162 µM) of the same cell line?
A: Its relative viability is 0.989.

Q: And the relative viability ([2]; first compound 0.1 µM)?
A: The relative viability was 1.06.

Q: What about the relative viability ([2]; first compound 0.3162 µM) of the same cell line?
A: The relative viability was 1.04.

Q: What about the relative viability ([3]; first compound 0.01 µM) of the same cell line?
A: The relative viability was 0.794.

Q: And the relative viability ([3]; first compound 0.03162 µM)?
A: Its relative viability is 0.585.

Q: What about the relative viability ([3]; first compound 0.1 µM) of the same cell line?
A: Its relative viability is 0.73.

Q: What about the relative viability ([3]; first compound 0.3162 µM) of the same cell line?
A: Its relative viability is 0.799.

Q: And the relative viability ([3]; first compound 1 µM)?
A: Its relative viability is 0.815.

Q: What about the relative viability ([4]; first compound 0.01 µM) of the same cell line?
A: Its relative viability is 1.24.

Q: And the relative viability ([4]; first compound 0.03162 µM)?
A: Its relative viability is 1.06.

Q: And the relative viability ([4]; first compound 0.1 µM)?
A: Its relative viability is 1.05.

Q: And the relative viability ([4]; first compound 0.3162 µM)?
A: The relative viability was 1.15.

Q: What about the relative viability ([4]; first compound 1 µM) of the same cell line?
A: Its relative viability is 1.04.
